In patent US11230593B2, “Compositions and methods for treating and preventing influenza” (VISTERRA, INC., priority 2019, dated 2022):
Converted amounts (≈) assume the structure as drawn. Read-outs that look alike come from different tables or passages of the source.

What was measured:
Type in all cases: cell-based, Influenza A
WSN/33 H274Y (H1N1) = tested on: WSN/33 H274Y (H1N1)
[1] = tested on: Victoria/3/75-Os-R (H3N2); assay: microbe, parasite or virus in culture
[2] = tested on: Mississippi/3/2001 H275Y (H1N1)
[3] = tested on: Hawaii/31/2007 H275Y (H1N1)
[4] = tested on: Pennsylvania/30/2009 H275Y, I223R (H1N1)
[5] = tested on: Hong Kong/2369/2009 H275Y (H1N1)

NC(=O)c1ncn([C@@H]2O[C@H](CO)[C@@H](O)[C@H]2O)n1 [Ribavirin, ribavirin]
EC50 (WSN/33 H274Y (H1N1)): 3.7 µg/mL (≈ 15.2 µM) | EC50 ([1]; Influenza A virus, H3N2, MDCK): 5.4 µg/mL (≈ 22.1 µM) | EC50 [2]: 18 µg/mL (≈ 73.7 µM) | EC50 [3]: 7.2 µg/mL (≈ 29.5 µM) | EC50 [4]: 5.2 µg/mL (≈ 21.3 µM) | EC50 [5]: 28 µg/mL (≈ 115 µM)

Oseltamivir acid [Oseltamivir (OSE)]
EC50 (WSN/33 H274Y (H1N1)): 28 µg/mL | SI (WSN/33 H274Y (H1N1)): >1.8 | EC50 [1]: >50 µg/mL | SI [1]: 0 | EC50 [2]: >50 µg/mL | SI [2]: 0 | EC50 [3]: >21 µg/mL | SI [3]: <2.4 | EC50 [4]: >50 µg/mL | SI [4]: 0 | SI [5]: <6.4
